The target of data set [1] is T1, Phosphodiesterase-5 enzyme (PDE 5) (Homo sapiens, UniProt O76074).
T1 construct: separated by HPLC (Mono Q anion exchange column) with concentration gradient of 0-500 mM NaCl to elute PDE isozymes; from tissue; host or cells: human corpus cavernosal tissue
As to the kind of experiment: Test for phosphodiesterase-5 (PDE 5) activity. The data set is classed as biochemical. The following applies: PDE 5 fraction from human corpus cavernosal tissues.

In data set [2] the target is T2, Phosphodiesterase-3 enzyme (PDE 3) (Oryctolagus cuniculus, UniProt G1ST54).
T2 construct: The supernatant was separated by DEAE-cellulose column chromatography (Whatman DE52 bead); from tissue; host or cells: rabbit platelets
T2 sequence (G1ST54 1-1128): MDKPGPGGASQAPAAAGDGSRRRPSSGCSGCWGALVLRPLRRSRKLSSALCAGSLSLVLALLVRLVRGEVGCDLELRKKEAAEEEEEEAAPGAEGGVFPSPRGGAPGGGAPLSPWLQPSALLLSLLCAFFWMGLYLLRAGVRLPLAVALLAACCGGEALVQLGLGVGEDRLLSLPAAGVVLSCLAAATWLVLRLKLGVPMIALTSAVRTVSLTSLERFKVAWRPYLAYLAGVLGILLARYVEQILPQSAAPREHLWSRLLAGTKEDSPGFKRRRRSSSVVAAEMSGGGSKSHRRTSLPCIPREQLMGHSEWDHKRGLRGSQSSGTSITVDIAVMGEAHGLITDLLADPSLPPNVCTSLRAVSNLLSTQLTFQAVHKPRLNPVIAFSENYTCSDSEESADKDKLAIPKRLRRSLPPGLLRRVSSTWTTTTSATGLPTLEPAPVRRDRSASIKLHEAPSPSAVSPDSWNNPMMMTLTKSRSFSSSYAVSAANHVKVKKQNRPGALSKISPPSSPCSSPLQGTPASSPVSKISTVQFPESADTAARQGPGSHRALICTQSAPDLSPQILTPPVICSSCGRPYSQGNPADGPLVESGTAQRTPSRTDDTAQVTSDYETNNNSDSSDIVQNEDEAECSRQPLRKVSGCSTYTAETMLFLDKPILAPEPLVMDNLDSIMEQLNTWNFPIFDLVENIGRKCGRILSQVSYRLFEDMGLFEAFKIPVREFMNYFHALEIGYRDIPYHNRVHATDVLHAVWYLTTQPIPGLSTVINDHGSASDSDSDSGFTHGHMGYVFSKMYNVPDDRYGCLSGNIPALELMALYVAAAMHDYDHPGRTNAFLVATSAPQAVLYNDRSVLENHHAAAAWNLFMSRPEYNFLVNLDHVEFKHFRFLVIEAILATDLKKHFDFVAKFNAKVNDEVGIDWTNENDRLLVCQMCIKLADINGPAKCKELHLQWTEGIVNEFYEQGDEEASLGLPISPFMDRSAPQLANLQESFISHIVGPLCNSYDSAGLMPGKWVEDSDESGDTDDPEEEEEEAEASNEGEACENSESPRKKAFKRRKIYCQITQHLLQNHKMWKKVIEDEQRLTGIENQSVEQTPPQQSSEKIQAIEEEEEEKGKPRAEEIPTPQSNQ
As to the kind of experiment: Test for phosphodiesterase-3 (PDE 3) activity. The data set is classed as biochemical. The following applies: PDE 3 fraction from platelets of a rabbit. The method, then: Phosphodiesterase-3 enzyme (PDE 3) was separated from platelets of a rabbit. About 60 ml of blood was collected from a puncture of the abdominal artery of a rabbit in heparinized syringes. Platelet-rich plasma was harvested by centrifugation for 5 min at 450×g and further centrifuged for 15 min at 1,200×g to precipitate the platelets. The platelets were resuspended in homogenizing buffer (50 mM Tris-HCl, 1 mM MgCl2, pH 7.4), homogenized at 4° C. and ultrasonicated (30 sec/ml). The homogenized solution was centrifuged (105,000×g) for 1 hr at 4° C. to obtain the supernatant in which PDE was dissolved. The supernatant was separated by DEAE-cellulose column chromatography (Whatman DE52 bead) by using eluent (50 mM Tris-HCl, 3.75mM2-mercaptoethanol, pH 6.0) with concentration gradient of 0-1 M sodium acetate to elute PDE isozymes. The PDE activity was measured on the each column fraction by the following process to separate PDE 3 fraction and the inhibition for PDE 3 of the compounds of formula 1 was measured by using the fraction.
To 1.5 ml tube containing 100 ul of reaction mixture (15 mM Tris-HCl, 5 mM MgCl2, 0.5 mg/ml BSA, pH 7.4) were added appropriate amount of PDE 3 fraction and PDE inhibitor and the solution was mixed well. After [^3H]-cAMP or [^3H]-cGMP (500 nM, 2 uCi/ml) was added, the mixture was reacted in incubator of 30° C. for about 1 hour and the reaction was quenched by putting the tube into boiling water for about 45 seconds to 2 min. The tube was chilled in ice bath for about 5 min. To this tube was added snake venom (1 mg/ml, 100 ul) or 5′-nucleotidase (0.1 unit/tube) and the mixture was reacted in incubator of 37° C. for 10 min and chilled in ice bath. 3 times volume of methanol to the resin was added to the anion exchange resin (Bio-Rad resin, AG1-X2, 200-400 mesh) which had been already washed with 0.5 N HCl, H2O, 0.5 N NaOH, H2O, 0.5 N HCl and H2O in order and adjusted to pH 5. Then 1 ml of the pretreated resin was added to the each tube with vortexing. The mixture was left at 4° C. for 15 min with occasional vortexing and centrifuged (10,000 rpm) for about 5 min to sediment the resin. The supernatant (700 ul) was transferred to a liquid scintillation vial, and mixed with 10 ml of scintillation cocktail. After stabilizing the mixture by leaving it overnight, the radioactivity of the tube was measured by β-counter.

Data set [3] can be described thus: Solubility in buffer solution in pH=2&5. The data set is classed as physicochemical. The note with it: for solubility at 30 min: 20 °C, thermodynamic from solid. As for the experimental part:
According to that defined in the Korea Pharmacopoeia, citrate-HCl buffer (pH 2) and citrate-NaOH buffer (pH 5) solutions were added to the powdered compounds of formula 1, respectively. After subsequent severe shaking for 30 sec every 5 min in […] for 30 min, the level of compounds in the filtrate was measured by high performance liquid chromatography.

A short description of data set [4]: Metabolism in rat liver (9,000xg supernatant fraction with NADPH). It is filed as in vitro ADME. The following applies: 10 ug/ml, 37° C., 1 hr, rat liver 9,000xg supernatant with NADPH generating solution. The method, then: In order to evaluate the extent of metabolism of the compounds of formula 1, the metabolism in rat liver was studied as below similar to the reported method (C. L. Litterist, E. G. Mimnaugh, R. I. Reagan and T. G. Gram., Drug. Metabol. Disposit., 1975, 3, 259-265). In short, the disappearance of compounds after incubation in 9, 000×g supernatant fraction of rat liver homogenate in the presence of NADPH (reduced nicotinamide adenine dinucleotide phosphate) was evaluated.
First, Sprague-Dawley rat (Korea Experiment Animals, SPF) liver was isolated after perfusion through portal vein with 0.1 M phosphate buffer of pH 7.0 using tissue homogenizer at 4° C. After centrifugation at 9,000×g for 20 min, the supernatants were collected.
The compound stock solution was spiked (10 ug/ml) into each of the eppendorf tubes containing 1 ml of the mixed solution composing 1 volume of supernatants and 2 volumes of generating solution. The generating solution contains 1 mM NADP, 10 mM glucose-6-phosphate, 50 mM nicotinamide and 5 MM MgCl2 in 0.1 M phosphate buffer of pH 7.0. After vortex-mixing, each test tube was incubated in a water bath kept at 37° C. After 1 hr, was added acetonitrile to the reaction mixture and centrifuged. 100 ul of aliquot of the supernatant was sampled from each test tube for measuring the remnants by high performance liquid chromatography.

Data set [5] can be described thus: Acute oral toxicity test in rats. The following applies: SD, rat, in vivo.
For data set [6], the system named is rats. In words: Penile erection test using rats. It is filed as in vivo, rat. The following applies: oral single dose 10 mg/kg in 0.5% methyl cellulose, observed for 2 hours.
Setting [7] is: citrate-HCl buffer, pH 2, aqueous buffer, citrate-HCl buffer (pH 2), read-out: solubility pH 2.
[8] abbreviates: citrate-NaOH buffer, pH 5, aqueous buffer, citrate-NaOH buffer (pH 5), read-out: solubility pH 5.
Setting [9] is: 1 g/kg, rats, oral single dose, read-out: lethal dose (LD50) of oral administration.

Values after ≈ are worked out from the molar mass of the structure shown. Where two headings read alike, the source gives them in different places.

One may read the IC50 as the midpoint of a concentration-inhibition curve. The low end stands for higher potency, the high end for lower potency. As a reminder, the solubility is how much of the substance goes into solution per volume.

Regarding `CCCOc1ccc(S(=O)(=O)NCCC2CCCN2C)cc1-c1nc2c(CCC)nn(C)c2c(=O)[nH]1` (stereo not drawn) [Example 68, 5-[2-propyloxy-5-(1-methyl-2-pyrrolidinylethylamidosulfonyl)phenyl]-1-methyl-3-propyl-1,6-dihydro-7H-pyrazolo(4,3-d)pyrimidin-7-one], the figures for the concentration for half-maximal inhibition (IC50) in data set [1] and in data set [2] were 8.85 nM and 70100 nM, respectively. In data set [3] (citrate-HCl buffer (pH 2)), the “solubility pH 2” value is recorded as 5356 ug/ml. Moreover, the solubility at 30 min in data set [3] (setting [7]) lay in the range of 3720 to 5360 µg/mL (≈ 7200 to 10400 µM). Besides, the “remnants (%)” value in data set [4] is listed as 93.0%. In data set [5] (po), this compound registered an LD50 of over 1000 mg/kg. Moreover, the “PEI (penile erection index)” value in data set [6] is 233.3 ± 152.8. Besides, in data set [6], the “genital grooming (number of genital groomings)” value (shortened to “genital grooming”) came out at 3.0 ± 2.0.
Turning to `CCCOc1ccc(S(=O)(=O)NCC2CCN(C)C2)cc1-c1nc2c(CCC)nn(C)c2c(=O)[nH]1` (stereo not drawn) [Example 60, 5-[2-propyloxy-5-(1-methyl-3-pyrrolidinylmethylamidosulfonyl)phenyl]-1-methyl-3-propyl-1,6-dihydro-7H-pyrazolo(4,3-d)pyrimidin-7-one], the figures for the half-maximal inhibitory concentration (IC50) in data set [1] and in data set [2] were 34.7 nM and over 199000 nM, respectively. For the same compound, the “solubility pH 2” value in data set [3] (citrate-HCl buffer (pH 2)) is 4497 ug/ml. Also, the solubility at 30 min was in the range of 3720 to 5360 µg/mL (≈ 7400 to 10700 µM) in data set [3] (setting [7]) and 4920 to 14800 µg/mL (≈ 9790 to 29400 µM) in data set [3] (setting [8]). Also, the “solubility pH 5” value in data set [3] (citrate-NaOH buffer (pH 5)) was 4923 ug/ml. In addition, the “remnants (%)” value in data set [4] was determined as 78.2%. The LD50 in data set [5] (setting [9]) was over 1000 mg/kg. For the same compound, in data set [6], the “PEI (penile erection index)” value turned out to be 300.0 ± 81.7. Besides, the “genital grooming” value in data set [6] was found to be 2.8 ± 0.5.
Regarding `CCOc1ccc(S(=O)(=O)NCC2CCN(C)C2)cc1-c1nc2c(CC(C)C)nn(C)c2c(=O)[nH]1` (stereo not drawn) [Example 62, 5-[2-ethoxy-5-(1-methyl-3-pyrrolidinylmethylamidosulfonyl)phenyl]-1-methyl-3-isobutyl-1,6-dihydro-7H-pyrazolo(4,3-d)pyrimidin-7-one], the IC50 in data set [1] was 41.7 nM; in data set [2], 164000 nM. Moreover, the “solubility pH 2” value in data set [3] (citrate-HCl buffer (pH 2)) is listed as 4383 ug/ml. The solubility at 30 min in data set [3] (setting [7]) is 3720 to 5360 µg/mL (≈ 7400 to 10700 µM); in data set [3] (setting [8]), 4920 to 14800 µg/mL (≈ 9790 to 29400 µM). Further, in data set [3] (citrate-NaOH buffer (pH 5)), the “solubility pH 5” value was determined as 3596 ug/ml. For the same compound, the “remnants (%)” value in data set [4] amounted to 94.5%. The LD50 in data set [5] (setting [9]) was over 1000 mg/kg. In data set [6], the “PEI (penile erection index)” value was determined as 200.0 ± 100.0. Moreover, in data set [6], the “genital grooming” value turned out to be 3.0 ± 1.0.
On to `CCOc1ccc(S(=O)(=O)NCCC2CCCN2C)cc1-c1nc2c(CC(C)C)nn(C)c2c(=O)[nH]1` (stereo not drawn) [Example 70, 5-[2-ethoxy-5-(1-methyl-2-pyrrolidinylethylamidosulfonyl)phenyl]-1-methyl-3-isobutyl-1,6-dihydro-7H-pyrazolo(4,3-d)pyrimidin-7-one], for which the concentration for half-maximal inhibition (IC50) was 20.3 nM in data set [1] and 61500 nM in data set [2]. Besides, the solubility at 30 min in data set [3] (setting [7]) amounted to 795 µg/mL (≈ 1540 µM); in data set [3] (setting [8]), 708 µg/mL (≈ 1370 µM). In addition, the “remnants (%)” value in data set [4] stood at 94.1%. In addition, in data set [5] (setting [9]), the LD50 is over 1000 mg/kg. Further, the “PEI (penile erection index)” value in data set [6] worked out at 175.0 ± 50.0. In addition, the “genital grooming” value in data set [6] is on record as 1.8 ± 0.5.
On to `CCCOc1ccc(S(=O)(=O)Nc2ccncc2)cc1-c1nc2c(CCC)nn(C)c2c(=O)[nH]1` [Example 35, 5-[2-propyloxy-5-(4-pyridylamidosulfonyl)phenyl]-1-methyl-3-propyl-1,6-dihydro-7H-pyrazolo(4,3-d)pyrimidin-7-one], for which the IC50 in data set [1] was 0.935 nM; in data set [2], over 207000 nM. Moreover, the solubility at 30 min is 11 µg/mL (≈ 22.8 µM) in data set [3] (setting [7]) and 1 µg/mL (≈ 2.07 µM) in data set [3] (setting [8]). The “remnants (%)” value in data set [4] was found to be 90.6%. Moreover, the LD50 in data set [5] (setting [9]) is over 1000 mg/kg. Moreover, the “PEI (penile erection index)” value in data set [6] was determined as 200.0 ± 0.0. Besides, the “genital grooming” value in data set [6] is given as 2.0 ± 0.0.
`CCOc1ccc(S(=O)(=O)Nc2ccncc2)cc1-c1nc2c(CC(C)C)nn(C)c2c(=O)[nH]1` [Example 37, 5-[2-ethoxy-5-(4-pyridylamidosulfonyl)phenyl]-1-methyl-3-isobutyl-1,6-dihydro-7H-pyrazolo(4,3-d)pyrimidin-7-one]: in data set [1], the midpoint of inhibition, the IC50, lay at 0.897 nM. For the same compound, the values for the solubility at 30 min in data set [3] (setting [7]) and in data set [3] (setting [8]) were 99 µg/mL (≈ 205 µM) and 7 µg/mL (≈ 14.5 µM), respectively. Further, the “remnants (%)” value in data set [4] is reported as 94.8%. The LD50 in data set [5] (setting [9]) was over 1000 mg/kg. For the same compound, the “PEI (penile erection index)” value in data set [6] was found to be 166.7 ± 57.7. The “genital grooming” value in data set [6] was 1.3 ± 0.6.

Values taken from US6583147B1, “Pyrazolopyrimidinone derivatives for the treatment of impotence” (Dong A Pharm Co., Ltd., priority 1998, dated 2003).
